Experimental data as given in patent US8877731B2, “Azido nucleosides and nucleotide analogs” (Alios Biopharma, Inc., priority 2010, dated 2014).
Like-named read-outs stand apart in the source and are kept apart here.

How the values were obtained:
[1] = system: RSV A2; assay: RSV RT-PCR based assay; format: cell-based; conditions: human respiratory syncytial virus
Experimental: RT-PCR based assays were performed in HEp-2 cells (ATCC: CCL-23) at a concentration of 20000 cell/well were plated in 96 well plates and incubated overnight. Each of the test compounds were ⅓ serially diluted and dosed to HEp-2 cells in duplicates. The highest final concentration for each compound was 100 uM. After 24 hour compound pre-incubation, RSV A2 (ATCC: VR-1540) at MOI of 0.1 was added. Two wells per compound were set aside as uninfected, untreated cell controls (CC), and four wells per test compound received virus only as a control for virus replication (VC). The assay was stopped 4 days after virus infection and conditioned media was removed for viral RNA isolation. The quantities of the RSV virus were measured by real-time PCR using a set of RSV specific primers and probe. The data was analyzed with Prism software with EC50 defined as drug concentration that reduced the viral load 50% from the viral control (VC).
(§1) Compounds of Formula (I) and Formula (II) are active in the assay as noted in Tables 2 and 3, where ‘A’ indicates an EC50<1 μM, ‘B’ indicates an EC50 of >1 μM and <10 μM, ‘C’ indicates an EC50>10 μM and <100 μM, and ‘D’ indicates an EC50>100 μM.

[2] = system: RSV Long strain; assay: RSV CPE reduction assay; format: cell-based; conditions: human respiratory syncytial virus
Experimental: CPE reduction assays were performed as described by Sidwell and Huffman et al., Appl Microbiol. (1971) 22(5):797-801 with slight modifications. HEp-2 cells (ATCC) at a concentration of 6000 cell/well were infected with RSV Long strain (ATCC) at a multiplicity of infection (m.o.i.) of 0.01, and each of the test compounds were provided to duplicate wells at final concentrations starting from 100 μM using ⅓ stepwise dilutions. For each compound, two wells were set aside as uninfected, untreated cell controls (CC), and two wells per test compound received virus only as a control for virus replication (VC). […] At the end of the incubation, 20 μl of cell counting kit-8 reagent (CCK-8, Dojindo Molecular Technologies, Inc.) were added to each well. After 4 hour incubation, the absorbance was measured in each well according to manufacturer's instruction, and the 50% effective concentration (EC50) was calculated by using regression analysis, based on the mean O.D. at each concentration of compound.
as §1

[3] = RT-PCR assay, HEp-2 cells, 24 hour compound pre-incubation, RSV A2 at MOI 0.1, 4 days after infection, viral load, read-out: EC50
[4] = 144 h, CPE assay, HEp-2 cells infected with RSV Long strain, m.o.i. 0.01, 6 days, CCK-8 readout, read-out: EC50

Row | SMILES | EC50 [1, 3] | EC50 [2, 4] | EC50 ([1]; HEp-2) | EC50 ([2]; HEp-2, 144 h)
1 | [N-]=[N+]=N[C@]1(CO)O[C@@H](n2ccc(=O)[nH]c2=O)C(F)(F)[C@@H]1O [Compound 5, 4′-azido-2′-deoxy-2′,2′-difluorouridine] | > 100 µM | > 100 µM |  | 
2 | C[C@@H]1[C@H](n2ccc(=O)[nH]c2=O)O[C@@](CO)(N=[N+]=[N-])[C@H]1O [Compound 6, 4′-azido-2′-deoxy-2′-methylarabinouridine] |  | > 100 µM |  | 
3 | CC(C)OC(=O)[C@H](C)NP(=S)(OC[C@@]1(N=[N+]=[N-])O[C@@H](n2ccc(=O)[nH]c2=O)[C@H](O)[C@@H]1O)Oc1ccccc1 (stereo partly drawn) [Compound 15, 4′-azidouridine 5′-(O-phenyl-N—(S)-1-(isopropoxycarbonyl)eth-1-yl)thiophosphoramidate] |  |  | < 1 µM | < 1 µM
4 | [N-]=[N+]=N[C@]1(CO)O[C@@H](n2ccc(=O)[nH]c2=O)[C@H](F)[C@@H]1O [Compound 17, 4′-azido-2′-deoxy-2′-fluorouridine] | > 100 µM | > 100 µM |  | 
5 | CC(C)OC(=O)[C@H](C)NP(=O)(OC[C@@]1(N=[N+]=[N-])O[C@@H](n2ccc(N)nc2=O)C(F)(F)[C@@H]1O)Oc1ccccc1 (stereo partly drawn) [Compound 18, 4′-azido-2′-deoxy-2′,2′-difluorocytidine 5′-(O-phenyl-N—(S)-1-(isopropoxycarbonyl)ethyl)phosphoramidate] | 1 to 10 µM | 1 to 10 µM |  | 
6 | CC(C)OC(=O)[C@H](C)NP(=O)(OC[C@@]1(N=[N+]=[N-])O[C@@H](n2ccc(=O)[nH]c2=O)C(F)(F)[C@@H]1O)Oc1ccccc1 (stereo partly drawn) [Compound 19, 4′-azido-2′-deoxy-2′,2′-difluorouridine 5′-(O-phenyl-N—(S)-1-(isopropoxycarbonyl)ethyl)phosphoramidate] | > 100 µM | > 100 µM |  | 
7 | [N-]=[N+]=N[C@]1(CO)O[C@@H](n2ccc(=O)[nH]c2=O)[C@@H](F)[C@@H]1O [Compound 20, 4′-azido-2′-deoxy-2′-fluoroarabinouridine] | > 100 µM | > 100 µM |  | 
8 | CC(C)OC(=O)[C@H](C)NP(=O)(OC[C@@]1(N=[N+]=[N-])O[C@@H](n2ccc(=O)[nH]c2=O)[C@H](O)[C@@H]1O)Oc1ccccc1 (stereo partly drawn) [Compound 21, 4′-azidouridine 5′-(O-phenyl-N—(S)-1-(isopropoxycarbonyl)eth-1-yl)phosphoramidate] | < 1 µM | < 1 µM |  | 
9 | [N-]=[N+]=N[C@@]12COP(=O)(O)O[C@H]1[C@@H](F)[C@H](n1ccc(=O)[nH]c1=O)O2 [Compound 32, 4′-azido-2′-deoxy-2′-fluorouridine 3′,5′-cyclic phosphate] |  | > 100 µM |  | 

Second part, led by results:

Row | EC50 [1, 3] | EC50 [2, 4] | SMILES | EC50 ([1]; HEp-2) | EC50 ([2]; HEp-2, 144 h)
10 | < 1 µM | < 1 µM | [N-]=[N+]=N[C@]1(CO)O[C@@H](n2ccc(N)nc2=O)C(F)(F)[C@@H]1O [Compound 1, 4′-azido-2′-deoxy-2′,2′-difluorocytidine] |  | 
11 | 1 to 10 µM | 10 to 100 µM | [N-]=[N+]=N[C@]1(CO)O[C@@H](n2ccc(N)nc2=O)[C@H](O)[C@@H]1O [Compound 7, 4′-azidocytidine] |  | 
12 |  | > 100 µM | [N-]=[N+]=N[C@]1(CO)O[C@@H](n2ccc(=O)[nH]c2=O)[C@H](O)[C@@H]1O [Compound 8, 4′-azidouridine] |  | 
13 |  | > 100 µM | C[C@@H]1[C@H](n2ccc(N)nc2=O)O[C@@](CO)(N=[N+]=[N-])[C@H]1O [Compound 9, 4′-azido-2′-deoxy-2′-methylarabinocytidine] |  | 
14 | < 1 µM | < 1 µM | [N-]=[N+]=N[C@]1(CO)O[C@@H](n2ccc(N)nc2=O)[C@@H](O)[C@@H]1O [Compound 11, 4′-azidoarabinocytidine] |  | 
15 | > 100 µM | > 100 µM | [N-]=[N+]=N[C@]1(CO)O[C@@H](n2ccc(=O)[nH]c2=O)[C@@H](O)[C@@H]1O [Compound 12, 4′-azidoarabinouridine] |  | 
16 | 1 to 10 µM |  | [N-]=[N+]=N[C@]1(CO)O[C@@H](n2ccc(N)nc2=O)[C@H](Cl)[C@@H]1O [Compound 53, 4′-azido-2′-chloro-2′-deoxycytidine] |  | 
